Assay results as given in paper PMC13415951 (Journal of Experimental Botany, 2026).

Key:
[1] = test system: roots of wheat cultivar Apogee seedlings; assay: Extracts from wheat roots exposed to mycotoxin, LC-MS/MS; assay type: in vivo, Triticum aestivum; conditions: 24 h
Description: (§1) Seedlings of Apogee and B. distachyon with roots 1–2 cm long were incubated in full-strength MS without sucrose and containing 50 mg l^−1 DON and/or either 50 mg l^−1 CUL (Apogee) or 10 mg l^−1 CUL (B. distachyon). The seedlings were placed into sterile 2 ml tubes containing 500 µl medium such that only the roots were submerged. After 24 h incubation under the same conditions as specified above for the elongation assays, the roots were cut from the seedlings, washed with 10% ethanol, briefly dried with tissue paper, and weighed. The roots were then ground in the Retsch Ball Mill MM 400 for 1 min at 30× s^−1 using two 5 mm steel balls, after which 500 µl methanol was added and the roots were extracted for 2 h at room temperature. The concentrations of DON, D3G, CUL, and CUL-glucosides were determined by LC-MS/MS.
DON, D3G, CUL, and CUL-glucosides were measured on a 6500+ QTrap MS/MS instrument (Sciex) coupled to an Agilent 1290 UHPLC system. A Kinetex C18 column (150×2.1 mm, 2.6 µm particle size; Phenomenex, Torrance, USA) was used for separation at 30 °C. […] DON and D3G were detected in negative ion mode first, and after 4.5 min the polarity was changed to positive electrospray mode to detect CUL and CUL-glucosides. […] D3G was determined with the [M+CH3COO]^− ion as the precursor (DP −80 V) with the following SRM settings: m/z 517.2 > 427.1 (CE −30 eV) and m/z 517.2 > 59.1 (CE −85 eV). […]

[2] = test system: roots of Brachypodium distachyon seedlings; assay: Extracts from B. distachyon roots exposed to mycotoxin, LC-MS/MS; assay type: in vivo; conditions: 24 h; for D3G synthesis in the presence of CUL: 50 mg l^−1 DON, 10 mg l^−1 CUL
Description: as §1
DON, D3G, CUL, and CUL-glucosides were measured on a 6500+ QTrap MS/MS instrument (Sciex) coupled to an Agilent 1290 UHPLC system. A Kinetex C18 column (150×2.1 mm, 2.6 µm particle size; Phenomenex, Torrance, USA) was used for separation at 30 °C. Mobile phases consisted of mixtures of methanol and water (A, 10% MeOH; B, 97% MeOH) and both contained 5 mM ammonium acetate. A flow rate of 250 µl min^–1 and an injection volume of 1 µl were chosen. The gradient started with 0% B for 1.0 min and then increased linearly to 100% B at 8.5 min. The column was rinsed with 100% B for 3 min, before equilibration with the start conditions for another 3 min until the end of the run at 14.5 min. The switching valve of the mass spectrometer directed the eluent into the ion source between 3.0 min and 11.0 min. […] DON and D3G were detected in negative ion mode first, and after 4.5 min the polarity was changed to positive electrospray mode to detect CUL and CUL-glucosides. […] D3G was determined with the [M+CH3COO]^− ion as the precursor (DP −80 V) with the following SRM settings: m/z 517.2 > 427.1 (CE −30 eV) and m/z 517.2 > 59.1 (CE −85 eV). […]

wheat coleoptile tissue = test system: wheat coleoptile tissue; set-up: method as in Wang and Miller, 1988; conditions: ref Wang and Miller, 1988, cited from earlier work
[3] = test system: human glucuronosyltransferases in liver microsomes; set-up: method as in Woelflingseder et al., 2019; conditions: ref Woelflingseder et al., 2019; cited from earlier work
animal cells = test system: animal cells; set-up: method as in Gruber-Dorninger et al., 2017; conditions: in vitro assays; ref Gruber-Dorninger et al., 2017; cited from earlier work

SMILES: CC1(C)CCC[C@]2(C)[C@@H]3[C@H]1[C@@H](O)[C@@]2(C)C[C@H]3O [CUL, culmorin]
- Effect of CUL on DON uptake by the roots ([1]; 50 mg l^−1 DON with 50 mg l^−1 CUL): did not inhibit DON uptake
- Reduction in the D3G concentration in the roots caused by CUL ([1]; 50 mg l^−1 DON with 50 mg l^−1 CUL vs DON alone): ~6 fold
- inhibition at 10 µg/mL ([2]; Brachypodium distachyon, OE-10R14 roots, 50 mg l^−1 DON with 10 mg l^−1 CUL, read-out: Reduction of D3G synthesis in the presence of CUL): ~58.6%
- D3G synthesis in the presence of CUL ([2]; TILLING line 6829-3 (wild-type BdUGT5g03300 allele)): suppressed
- D3G synthesis in the presence of CUL ([2]; TILLING mutant 6829-7 (BdUGT5g03300 W345*)): not further reduced
- Phytotoxicity on wheat by itself (wheat coleoptile tissue; 10 µM CUL (∼3 mg l^−1)): no phytotoxicity
- Phytotoxicity on wheat coleoptile tissue (wheat coleoptile tissue; 1000 µM CUL): phytotoxic effect
- Effect on DON-glucuronidation [3]: suppresses DON-glucuronidation
- Toxicity to animal cells (animal cells): low toxicity
